# Reference: patent publication US20090131431A1, “Pyrazolo[3,4-b]pyridine compounds, and their use as a PDE4 inhibitors” (priority 2005, published 2009)
# Target: T1, PDE4B (human recombinant) (Homo sapiens, UniProt Q07343)
# T1 construct: made in house
# Assay: Inhibition of PDE4B activity: SPA and/or Fluorescence Polarisation (FP) assay
# Type: biochemical
# Conditions: one reading (n=1) or average of 2 or more readings, read-out: PDE4B pIC50 (±about 0.5) (converted)
# Summary of the method: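 Human recombinant PDE4B activity measured by SPA with [3H]cAMP at about 10 nM, 1 h at ambient temperature, enzyme set for ≤20% substrate hydrolysis, or by IMAP FP with Fl-cAMP at about 40 nM, 40 min at ambient temperature under linear conditions. Inhibition curves fitted; values reported as pIC50.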
# T1 sequence (Q07343 1-564 isoform Q07343-2): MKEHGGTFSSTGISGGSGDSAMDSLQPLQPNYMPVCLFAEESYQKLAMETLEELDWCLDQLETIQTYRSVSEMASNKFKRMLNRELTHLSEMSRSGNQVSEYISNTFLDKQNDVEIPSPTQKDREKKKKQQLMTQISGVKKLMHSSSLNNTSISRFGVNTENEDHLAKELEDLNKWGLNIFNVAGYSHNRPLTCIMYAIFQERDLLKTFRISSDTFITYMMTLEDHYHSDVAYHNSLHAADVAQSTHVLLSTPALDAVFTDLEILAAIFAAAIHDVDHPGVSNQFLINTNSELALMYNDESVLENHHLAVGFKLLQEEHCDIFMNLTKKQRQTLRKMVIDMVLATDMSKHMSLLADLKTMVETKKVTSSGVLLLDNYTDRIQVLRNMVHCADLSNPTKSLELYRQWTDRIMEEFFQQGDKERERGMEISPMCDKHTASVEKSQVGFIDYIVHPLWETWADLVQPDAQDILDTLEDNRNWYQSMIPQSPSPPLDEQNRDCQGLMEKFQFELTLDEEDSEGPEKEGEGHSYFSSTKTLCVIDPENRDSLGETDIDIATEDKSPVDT
row,IC50 [nM],Compound
1,0.126 to 1,"CCn1ncc2c(NC3CCOCC3)c(CNC(=O)c3cc(C)on3)c(C)nc21 [Example 225, N-{[1-ethyl-6-methyl-4-(tetrahydro-2H-pyran-4-ylamino)-1H-pyrazolo[3,4-b]pyridin-5-yl]methyl}-5-methyl-3-isoxazolecarboxamide]"
2,0.126 to 1,"CCn1ncc2c(NC3CCOCC3)c(CNC(=O)c3cncs3)c(C)nc21 [Example 226, N-{[1-ethyl-6-methyl-4-(tetrahydro-2H-pyran-4-ylamino)-1H-pyrazolo[3,4-b]pyridin-5-yl]methyl}-1,3-thiazole-5-carboxamide]"
3,0.126 to 1,"CCn1ncc2c(NC3CCOCC3)c(CNC(=O)c3ccsc3)c(C)nc21 [Example 227, N-{[1-ethyl-6-methyl-4-(tetrahydro-2H-pyran-4-ylamino)-1H-pyrazolo[3,4-b]pyridin-5-yl]methyl}-3-thiophenecarboxamide]"
4,0.126 to 1,"CCn1ncc2c(NC3CCOCC3)c(CNC(=O)c3cnc(C)cn3)c(C)nc21 [Example 228, N-{[1-ethyl-6-methyl-4-(tetrahydro-2H-pyran-4-ylamino)-1H-pyrazolo[3,4-b]pyridin-5-yl]methyl}-5-methyl-2-pyrazinecarboxamide]"
5,0.126 to 1,"CCc1nc2c(cnn2CC)c(NC2CCOCC2)c1CNC(=O)c1cncs1 [Example 234, N-{[1,6-diethyl-4-(tetrahydro-2H-pyran-4-ylamino)-1H-pyrazolo[3,4-b]pyridin-5-yl]methyl}-1,3-thiazole-5-carboxamide]"
6,0.01 to 0.1,"CCc1nc2c(cnn2CC)c(NC2CCOCC2)c1CNC(=O)c1ccsc1 [Example 235, N-{[1,6-diethyl-4-(tetrahydro-2H-pyran-4-ylamino)-1H-pyrazolo[3,4-b]pyridin-5-yl]methyl}-3-thiophenecarboxamide]"
7,0.01 to 0.1,"CCc1nc2c(cnn2CC)c(NC2CCOCC2)c1CNC(=O)c1cnc(C)cn1 [Example 236, N-{[1,6-diethyl-4-(tetrahydro-2H-pyran-4-ylamino)-1H-pyrazolo[3,4-b]pyridin-5-yl]methyl}-5-methyl-2-pyrazinecarboxamide]"
8,0.126 to 1,"CCc1nc2c(cnn2CC)c(NC2CCOCC2)c1CNC(=O)c1ccn(C)n1 [Example 238, N-{[1,6-diethyl-4-(tetrahydro-2H-pyran-4-ylamino)-1H-pyrazolo[3,4-b]pyridin-5-yl]methyl}-1-methyl-1H-pyrazole-3-carboxamide]"
9,0.01 to 0.1,"CCc1nc2c(cnn2CC)c(NC2CCN(C(N)=O)CC2)c1CNC(=O)c1ccc(NC(C)=O)cc1 [Example 242, 4-({5-[({[4-(acetylamino)phenyl]carbonyl}amino)methyl]-1,6-diethyl-1H-pyrazolo[3,4-b]pyridin-4-yl}amino)-1-piperidinecarboxamide]"
10,0.01 to 0.1,"CCc1nc2c(cnn2CC)c(NC2CCN(C(N)=O)CC2)c1CNC(=O)c1ccccc1F [Example 246, 4-{[1,6-diethyl-5-({[(2-fluorophenyl)carbonyl]amino}methyl)-1H-pyrazolo[3,4-b]pyridin-4-yl]amino}-1-piperidinecarboxamide]"
11,0.01 to 0.1,"CCc1nc2c(cnn2CC)c(NC2CCN(C(N)=O)CC2)c1CNC(=O)c1cccc(N2CCCC2=O)c1 [Example 247, 4-({1,6-diethyl-5-[({[3-(2-oxo-1-pyrrolidinyl)phenyl]carbonyl}amino)methyl]-1H-pyrazolo[3,4-b]pyridin-4-yl}amino)-1-piperidinecarboxamide]"
12,0.01 to 0.1,"CCc1nc2c(cnn2CC)c(NC2CCN(C(N)=O)CC2)c1CNC(=O)c1ccc2c(=O)[nH][nH]c2c1 [Example 248, N-[(4-{[1-(aminocarbonyl)-4-piperidinyl]amino}-1,6-diethyl-1H-pyrazolo[3,4-b]pyridin-5-yl)methyl]-3-oxo-2,3-dihydro-1H-indazole-6-carboxamide]"
13,0.126 to 1,"CCc1nc2c(cnn2CC)c(NC2CCOCC2)c1CNC(=O)c1ccc(S(C)(=O)=O)cc1 [Example 249, N-{[1,6-diethyl-4-(tetrahydro-2H-pyran-4-ylamino)-1H-pyrazolo[3,4-b]pyridin-5-yl]methyl}-4-(methylsulfonyl)benzamide]"
14,0.01 to 0.1,"CCc1nc2c(cnn2CC)c(NC2CCOCC2)c1CNC(=O)c1ccc(C)cc1O [Example 254, N-{[1,6-diethyl-4-(tetrahydro-2H-pyran-4-ylamino)-1H-pyrazolo[3,4-b]pyridin-5-yl]methyl}-2-hydroxy-4-methylbenzamide]"
15,0.01 to 0.1,"CCc1nc2c(cnn2CC)c(NC2CCOCC2)c1CNC(=O)c1ccc(C(=O)NC)cc1 [Example 255, N-{[1,6-diethyl-4-(tetrahydro-2H-pyran-4-ylamino)-1H-pyrazolo[3,4-b]pyridin-5-yl]methyl}-N′-methyl-1,4-benzenedicarboxamide]"

# Second part, the compound before the results:
row,Compound,IC50 [nM]
1,"CCn1ncc2c(NC3CCOCC3)c(CNC(=O)c3ccco3)c(C)nc21 [Example 218, N-{[1-ethyl-6-methyl-4-(tetrahydro-2H-pyran-4-ylamino)-1H-pyrazolo[3,4-b]pyridin-5-yl]methyl}-2-furancarboxamide]",0.126 to 1
2,"CCOc1ccccc1C(=O)NCc1c(C)nc2c(cnn2CC)c1NC1CCOCC1 [Example 219, N-{[1-ethyl-6-methyl-4-(tetrahydro-2H-pyran-4-ylamino)-1H-pyrazolo[3,4-b]pyridin-5-yl]methyl}-2-(ethyloxy)benzamide]",0.126 to 1
3,"CCn1ncc2c(NC3CCOCC3)c(CNC(=O)c3cccc4c3OCC4)c(C)nc21 [Example 220, N-{[1-ethyl-6-methyl-4-(tetrahydro-2H-pyran-4-ylamino)-1H-pyrazolo[3,4-b]pyridin-5-yl]methyl}-2,3-dihydro-1-benzofuran-7-carboxamide]",0.01 to 0.1
4,"CCn1ncc2c(NC3CCOCC3)c(CNC(=O)c3ccn(C)n3)c(C)nc21 [Example 229, N-{[1-ethyl-6-methyl-4-(tetrahydro-2H-pyran-4-ylamino)-1H-pyrazolo[3,4-b]pyridin-5-yl]methyl}-1-methyl-1H-pyrazole-3-carboxamide]",0.126 to 1
5,"CCc1nc2c(cnn2CC)c(NC2CCOCC2)c1CNC(=O)c1ccncc1F [Example 231, N-{[1,6-diethyl-4-(tetrahydro-2H-pyran-4-ylamino)-1H-pyrazolo[3,4-b]pyridin-5-yl]methyl}-3-fluoro-4-pyridinecarboxamide]",0.126 to 1
6,"CCc1nc2c(cnn2CC)c(NC2CCOCC2)c1CNC(=O)c1ccccc1F [Example 232, N-{[1,6-diethyl-4-(tetrahydro-2H-pyran-4-ylamino)-1H-pyrazolo[3,4-b]pyridin-5-yl]methyl}-2-fluorobenzamide]",0.01 to 0.1
7,"CCc1nc2c(cnn2CC)c(NC2CCOCC2)c1CNC(=O)c1cc(C)on1 [Example 233, N-{[1,6-diethyl-4-(tetrahydro-2H-pyran-4-ylamino)-1H-pyrazolo[3,4-b]pyridin-5-yl]methyl}-5-methyl-3-isoxazolecarboxamide]",0.01 to 0.1
8,"CCc1nc2c(cnn2CC)c(NC2CCOCC2)c1CNC(=O)c1cnco1 [Example 239, N-{[1,6-diethyl-4-(tetrahydro-2H-pyran-4-ylamino)-1H-pyrazolo[3,4-b]pyridin-5-yl]methyl}-1,3-oxazole-5-carboxamide]",0.126 to 1
9,"CCc1nc2c(cnn2CC)c(NC2CCN(C(N)=O)CC2)c1CNC(=O)c1ccco1 [Example 240, 4-[(1,6-diethyl-5-{[(2-furanylcarbonyl)amino]methyl}-1H-pyrazolo[3,4-b]pyridin-4-yl)amino]-1-piperidinecarboxamide]",0.01 to 0.1
10,"CCc1nc2c(cnn2CC)c(NC2CCN(C(N)=O)CC2)c1CNC(=O)c1ccc(NC(C)=O)cc1O [Example 241, 4-({5-[({[4-(acetylamino)-2-hydroxyphenyl]carbonyl}amino)methyl]-1,6-diethyl-1H-pyrazolo[3,4-b]pyridin-4-yl}amino)-1-piperidinecarboxamide]",0.01 to 0.1
11,"CCc1nc2c(cnn2CC)c(NC2CCN(C(N)=O)CC2)c1CNC(=O)c1ccc(C(C)(C)C)cc1 [Example 243, 4-({5-[({[4-(1-dimethylethyl)phenyl]carbonyl}amino)methyl]-1,6-diethyl-1H-pyrazolo[3,4-b]pyridin-4-yl}amino)-1-piperidinecarboxamide]",0.01 to 0.1
12,"CCc1nc2c(cnn2CC)c(NC2CCN(C(N)=O)CC2)c1CNC(=O)c1cccc(NC(C)=O)c1 [Example 244, 4-({5-[({[3-(acetylamino)phenyl]carbonyl}amino)methyl]-1,6-diethyl-1H-pyrazolo[3,4-b]pyridin-4-yl}amino)-1-piperidinecarboxamide]",0.01 to 0.1
13,"CCc1nc2c(cnn2CC)c(NC2CCN(C(N)=O)CC2)c1CNC(=O)c1ccc(C)cc1O [Example 245, 4-{[1,6-diethyl-5-({[(2-hydroxy-4-methylphenyl)carbonyl]amino}methyl)-1H-pyrazolo[3,4-b]pyridin-4-yl]amino}-1-piperidinecarboxamide]",0.01 to 0.1
14,"CCc1nc2c(cnn2CC)c(NC2CCOCC2)c1CNC(=O)c1ccccc1O [Example 250, N-{[1,6-diethyl-4-(tetrahydro-2H-pyran-4-ylamino)-1H-pyrazolo[3,4-b]pyridin-5-yl]methyl}-2-hydroxybenzamide]",0.01 to 0.1
15,"CCc1nc2c(cnn2CC)c(NC2CCOCC2)c1CNC(=O)c1ccc(NC(C)=O)cc1O [Example 251, 4-(acetylamino)-N-{[1,6-diethyl-4-(tetrahydro-2H-pyran-4-ylamino)-1H-pyrazolo[3,4-b]pyridin-5-yl]methyl}-2-hydroxybenzamide]",0.01 to 0.1
16,"CCc1nc2c(cnn2CC)c(NC2CCOCC2)c1CNC(=O)c1ccc(C(C)(C)C)cc1 [Example 252, N-{[1,6-diethyl-4-(tetrahydro-2H-pyran-4-ylamino)-1H-pyrazolo[3,4-b]pyridin-5-yl]methyl}-4-(1,1-dimethylethyl)benzamide]",0.01 to 0.1
17,"CCc1nc2c(cnn2CC)c(NC2CCOCC2)c1CNC(=O)c1ccc(C(N)=O)cc1 [Example 253, N-{[1,6-diethyl-4-(tetrahydro-2H-pyran-4-ylamino)-1H-pyrazolo[3,4-b]pyridin-5-yl]methyl}-1,4-benzenedicarboxamide]",0.01 to 0.1
